The source of these data is ChEMBL document CHEMBL5465560, “Selectivity Literature for EUbOPEN Chemogenomic Library” (2024).

Experiment [1] concerns the target Serine/threonine-protein kinase MARK2 (Homo sapiens) (UniProt Q7KZI7). The experiment in a line: Selectivity interaction (ActivX KiNativ screen (ex vivo kinase selectivity in human PBMCs)) EUB0001619a MARK2. It counts as cell-based. Particulars: PBMC, at 1 µM.
The target in experiment [2] is Tyrosine-protein kinase Lyn (Homo sapiens, UniProt P07948). The following applies: at 10 µM.
The target in experiment [3] is T1, Serine/threonine-protein kinase Nek3 (Homo sapiens) (UniProt P51956).
T1 sequence (whole entry): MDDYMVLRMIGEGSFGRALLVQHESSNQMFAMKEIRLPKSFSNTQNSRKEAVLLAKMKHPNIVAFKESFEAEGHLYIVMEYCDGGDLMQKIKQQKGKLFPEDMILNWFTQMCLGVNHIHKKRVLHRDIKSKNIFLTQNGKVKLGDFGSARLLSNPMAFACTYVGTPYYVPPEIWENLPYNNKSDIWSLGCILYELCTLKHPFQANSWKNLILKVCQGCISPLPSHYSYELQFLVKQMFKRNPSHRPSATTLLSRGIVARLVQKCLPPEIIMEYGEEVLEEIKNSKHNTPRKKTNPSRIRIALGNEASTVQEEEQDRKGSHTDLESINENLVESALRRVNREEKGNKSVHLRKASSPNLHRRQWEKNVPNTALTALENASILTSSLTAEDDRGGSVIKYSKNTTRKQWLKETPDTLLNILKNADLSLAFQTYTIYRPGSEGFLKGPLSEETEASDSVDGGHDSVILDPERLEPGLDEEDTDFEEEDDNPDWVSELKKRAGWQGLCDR
The following applies: at 10 µM.

For experiment [4], the target named is T2, Aurora kinase A (Homo sapiens) (UniProt O14965).
T2 sequence (whole entry): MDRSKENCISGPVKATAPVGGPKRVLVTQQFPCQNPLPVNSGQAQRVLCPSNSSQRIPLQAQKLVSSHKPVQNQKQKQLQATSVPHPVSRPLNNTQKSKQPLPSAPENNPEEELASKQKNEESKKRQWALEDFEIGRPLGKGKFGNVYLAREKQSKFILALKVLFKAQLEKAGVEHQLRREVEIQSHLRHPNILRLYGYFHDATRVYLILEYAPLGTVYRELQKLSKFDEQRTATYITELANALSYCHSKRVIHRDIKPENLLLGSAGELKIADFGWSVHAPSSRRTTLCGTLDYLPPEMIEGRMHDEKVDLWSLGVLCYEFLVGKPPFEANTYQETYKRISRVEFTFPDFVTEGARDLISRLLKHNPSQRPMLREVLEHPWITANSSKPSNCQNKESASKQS
Kind of experiment: Selectivity interaction (ActivX KiNativ screen (kinase selectivity in THP-1 cell lysates)) EUB0000639a STK6. It counts as subcellular. Particulars: lysate, at 0.04 µM.

Experiment [5] has as its target Histone-lysine N-methyltransferase 2A (Homo sapiens) (UniProt Q03164). Kind of experiment: Selectivity interaction (Bromodomain panel (DSF asssay)) EUB0000270b MLL.
Experiment [6] addresses T3, Cyclin-dependent kinase 11A (Homo sapiens) (UniProt Q9UQ88).
T3 sequence (whole entry): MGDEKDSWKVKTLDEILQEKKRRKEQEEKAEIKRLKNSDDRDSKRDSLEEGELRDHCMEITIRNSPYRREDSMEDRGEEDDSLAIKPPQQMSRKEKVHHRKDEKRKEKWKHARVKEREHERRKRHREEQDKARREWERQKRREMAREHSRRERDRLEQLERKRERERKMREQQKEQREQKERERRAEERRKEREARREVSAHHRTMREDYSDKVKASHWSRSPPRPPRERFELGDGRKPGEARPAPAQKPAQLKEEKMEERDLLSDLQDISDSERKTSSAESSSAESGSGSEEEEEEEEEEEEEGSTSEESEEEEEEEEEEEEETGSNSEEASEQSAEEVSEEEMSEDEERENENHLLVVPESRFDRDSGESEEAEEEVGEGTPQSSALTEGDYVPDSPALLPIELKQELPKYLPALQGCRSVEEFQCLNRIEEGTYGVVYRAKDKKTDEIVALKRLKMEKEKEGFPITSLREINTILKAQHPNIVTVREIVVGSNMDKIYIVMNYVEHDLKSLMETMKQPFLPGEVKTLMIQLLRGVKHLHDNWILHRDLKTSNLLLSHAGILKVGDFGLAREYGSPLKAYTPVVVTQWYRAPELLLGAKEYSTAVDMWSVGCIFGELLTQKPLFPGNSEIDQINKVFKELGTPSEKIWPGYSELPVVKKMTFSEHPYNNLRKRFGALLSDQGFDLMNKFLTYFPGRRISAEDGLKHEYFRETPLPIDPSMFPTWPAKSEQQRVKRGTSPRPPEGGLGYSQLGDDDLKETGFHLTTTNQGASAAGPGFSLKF
Kind of experiment: Selectivity interaction (KinomeScan (DiscoverX)) EUB0000229b CDK11A. The following applies: at 10 µM.

Sequence of Histone-lysine N-methyltransferase 2A (Homo sapiens) (Q03164 1-2718 limits assumed): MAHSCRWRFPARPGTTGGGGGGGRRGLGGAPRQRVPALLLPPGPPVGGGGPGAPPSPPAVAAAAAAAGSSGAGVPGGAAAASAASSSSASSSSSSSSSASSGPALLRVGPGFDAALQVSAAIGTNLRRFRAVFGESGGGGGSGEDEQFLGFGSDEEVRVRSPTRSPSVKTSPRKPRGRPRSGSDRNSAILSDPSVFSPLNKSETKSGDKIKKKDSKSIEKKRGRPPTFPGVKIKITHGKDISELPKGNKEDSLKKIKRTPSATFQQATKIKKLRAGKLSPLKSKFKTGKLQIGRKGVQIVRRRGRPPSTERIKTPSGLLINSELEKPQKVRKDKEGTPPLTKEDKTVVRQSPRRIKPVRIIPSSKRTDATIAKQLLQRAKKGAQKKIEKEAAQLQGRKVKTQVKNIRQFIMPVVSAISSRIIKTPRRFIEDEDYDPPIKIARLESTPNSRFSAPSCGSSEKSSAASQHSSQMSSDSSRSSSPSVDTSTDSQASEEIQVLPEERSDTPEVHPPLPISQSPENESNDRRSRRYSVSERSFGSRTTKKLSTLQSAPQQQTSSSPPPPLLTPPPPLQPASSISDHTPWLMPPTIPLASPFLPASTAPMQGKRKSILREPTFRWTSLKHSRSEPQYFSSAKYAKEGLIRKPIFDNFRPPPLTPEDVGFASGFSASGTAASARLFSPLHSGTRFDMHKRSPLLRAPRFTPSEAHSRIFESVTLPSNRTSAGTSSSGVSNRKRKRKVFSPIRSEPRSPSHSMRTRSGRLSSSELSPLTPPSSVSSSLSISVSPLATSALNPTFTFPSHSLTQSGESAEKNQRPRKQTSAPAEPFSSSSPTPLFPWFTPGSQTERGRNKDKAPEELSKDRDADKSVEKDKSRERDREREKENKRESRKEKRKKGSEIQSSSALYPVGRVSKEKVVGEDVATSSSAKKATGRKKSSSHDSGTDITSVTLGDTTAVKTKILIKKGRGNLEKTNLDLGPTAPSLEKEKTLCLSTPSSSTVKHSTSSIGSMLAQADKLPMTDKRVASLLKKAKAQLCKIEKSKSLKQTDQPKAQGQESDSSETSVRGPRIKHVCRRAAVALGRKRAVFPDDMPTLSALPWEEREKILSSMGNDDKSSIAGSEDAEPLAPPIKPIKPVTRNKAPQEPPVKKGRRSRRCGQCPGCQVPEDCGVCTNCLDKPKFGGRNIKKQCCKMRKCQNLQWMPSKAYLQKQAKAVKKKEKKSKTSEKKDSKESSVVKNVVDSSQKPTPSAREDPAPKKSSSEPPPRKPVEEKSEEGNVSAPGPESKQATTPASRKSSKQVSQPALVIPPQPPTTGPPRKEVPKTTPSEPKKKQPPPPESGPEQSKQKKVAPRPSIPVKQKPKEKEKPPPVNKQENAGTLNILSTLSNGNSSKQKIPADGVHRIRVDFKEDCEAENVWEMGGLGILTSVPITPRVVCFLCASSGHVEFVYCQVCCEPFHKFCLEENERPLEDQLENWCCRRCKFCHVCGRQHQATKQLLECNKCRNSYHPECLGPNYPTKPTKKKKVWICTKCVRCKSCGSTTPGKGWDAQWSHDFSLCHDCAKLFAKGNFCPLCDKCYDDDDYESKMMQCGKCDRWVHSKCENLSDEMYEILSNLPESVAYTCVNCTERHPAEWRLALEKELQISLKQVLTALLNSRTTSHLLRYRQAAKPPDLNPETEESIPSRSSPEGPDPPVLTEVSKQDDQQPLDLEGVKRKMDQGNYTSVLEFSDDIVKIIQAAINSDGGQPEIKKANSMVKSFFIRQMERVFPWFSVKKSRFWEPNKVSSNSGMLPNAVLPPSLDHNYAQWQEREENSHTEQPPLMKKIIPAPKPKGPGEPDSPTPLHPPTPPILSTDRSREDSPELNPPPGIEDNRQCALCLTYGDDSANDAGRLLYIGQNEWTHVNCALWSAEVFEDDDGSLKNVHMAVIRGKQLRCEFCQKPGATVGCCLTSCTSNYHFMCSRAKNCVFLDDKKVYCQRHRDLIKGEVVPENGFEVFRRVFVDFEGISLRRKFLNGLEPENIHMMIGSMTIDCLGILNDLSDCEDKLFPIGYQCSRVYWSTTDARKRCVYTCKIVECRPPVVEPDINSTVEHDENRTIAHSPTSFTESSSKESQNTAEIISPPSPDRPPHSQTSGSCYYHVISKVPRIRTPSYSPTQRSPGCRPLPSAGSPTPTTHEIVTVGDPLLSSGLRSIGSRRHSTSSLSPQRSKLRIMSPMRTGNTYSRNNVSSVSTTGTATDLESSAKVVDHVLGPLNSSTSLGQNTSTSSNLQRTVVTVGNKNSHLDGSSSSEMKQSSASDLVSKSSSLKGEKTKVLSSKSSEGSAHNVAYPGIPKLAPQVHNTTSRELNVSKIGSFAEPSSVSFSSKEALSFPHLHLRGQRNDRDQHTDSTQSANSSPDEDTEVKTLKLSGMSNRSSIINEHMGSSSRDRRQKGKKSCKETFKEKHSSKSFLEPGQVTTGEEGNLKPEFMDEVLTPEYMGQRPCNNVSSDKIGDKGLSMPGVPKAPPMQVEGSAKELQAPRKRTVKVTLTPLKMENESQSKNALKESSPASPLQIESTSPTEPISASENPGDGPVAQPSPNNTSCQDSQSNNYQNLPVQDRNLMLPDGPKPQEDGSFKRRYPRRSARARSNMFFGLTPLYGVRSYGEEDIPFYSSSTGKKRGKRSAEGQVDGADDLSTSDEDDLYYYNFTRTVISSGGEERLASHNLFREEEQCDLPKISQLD
Sequence of Histone-lysine N-methyltransferase 2A (Homo sapiens) (Q03164 2719-3969 limits assumed): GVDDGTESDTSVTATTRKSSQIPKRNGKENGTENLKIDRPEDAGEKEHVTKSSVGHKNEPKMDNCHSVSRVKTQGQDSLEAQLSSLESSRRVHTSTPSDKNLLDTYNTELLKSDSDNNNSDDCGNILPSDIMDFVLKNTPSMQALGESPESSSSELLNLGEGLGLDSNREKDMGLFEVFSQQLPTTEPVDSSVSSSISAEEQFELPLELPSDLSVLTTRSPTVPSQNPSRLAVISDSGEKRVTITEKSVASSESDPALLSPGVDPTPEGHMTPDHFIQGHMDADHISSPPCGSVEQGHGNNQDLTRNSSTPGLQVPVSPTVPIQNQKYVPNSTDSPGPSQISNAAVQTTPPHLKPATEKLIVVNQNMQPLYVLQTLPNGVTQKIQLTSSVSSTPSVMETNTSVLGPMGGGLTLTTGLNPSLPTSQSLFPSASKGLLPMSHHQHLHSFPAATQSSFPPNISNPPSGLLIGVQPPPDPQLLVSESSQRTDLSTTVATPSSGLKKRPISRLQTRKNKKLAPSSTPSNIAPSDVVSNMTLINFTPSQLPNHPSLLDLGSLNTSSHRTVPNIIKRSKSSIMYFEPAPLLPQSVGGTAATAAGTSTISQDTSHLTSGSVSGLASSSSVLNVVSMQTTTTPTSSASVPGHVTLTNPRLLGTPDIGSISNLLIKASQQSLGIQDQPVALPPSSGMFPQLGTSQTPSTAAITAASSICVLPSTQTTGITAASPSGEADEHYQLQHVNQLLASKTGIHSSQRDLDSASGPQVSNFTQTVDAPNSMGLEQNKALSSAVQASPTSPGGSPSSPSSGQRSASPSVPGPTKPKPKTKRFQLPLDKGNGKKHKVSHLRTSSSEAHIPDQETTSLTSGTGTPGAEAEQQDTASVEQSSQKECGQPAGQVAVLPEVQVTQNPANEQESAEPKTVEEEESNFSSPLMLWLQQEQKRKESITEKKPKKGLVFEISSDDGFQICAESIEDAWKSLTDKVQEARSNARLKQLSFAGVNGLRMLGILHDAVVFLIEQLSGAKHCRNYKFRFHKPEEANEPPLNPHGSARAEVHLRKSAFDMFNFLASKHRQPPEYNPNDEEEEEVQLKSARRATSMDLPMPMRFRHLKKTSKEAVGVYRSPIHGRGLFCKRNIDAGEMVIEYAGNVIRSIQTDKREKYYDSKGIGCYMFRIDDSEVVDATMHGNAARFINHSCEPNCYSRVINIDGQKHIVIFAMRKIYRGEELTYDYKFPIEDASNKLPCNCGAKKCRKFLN
Sequence of Serine/threonine-protein kinase MARK2 (Homo sapiens) (Q7KZI7 whole entry): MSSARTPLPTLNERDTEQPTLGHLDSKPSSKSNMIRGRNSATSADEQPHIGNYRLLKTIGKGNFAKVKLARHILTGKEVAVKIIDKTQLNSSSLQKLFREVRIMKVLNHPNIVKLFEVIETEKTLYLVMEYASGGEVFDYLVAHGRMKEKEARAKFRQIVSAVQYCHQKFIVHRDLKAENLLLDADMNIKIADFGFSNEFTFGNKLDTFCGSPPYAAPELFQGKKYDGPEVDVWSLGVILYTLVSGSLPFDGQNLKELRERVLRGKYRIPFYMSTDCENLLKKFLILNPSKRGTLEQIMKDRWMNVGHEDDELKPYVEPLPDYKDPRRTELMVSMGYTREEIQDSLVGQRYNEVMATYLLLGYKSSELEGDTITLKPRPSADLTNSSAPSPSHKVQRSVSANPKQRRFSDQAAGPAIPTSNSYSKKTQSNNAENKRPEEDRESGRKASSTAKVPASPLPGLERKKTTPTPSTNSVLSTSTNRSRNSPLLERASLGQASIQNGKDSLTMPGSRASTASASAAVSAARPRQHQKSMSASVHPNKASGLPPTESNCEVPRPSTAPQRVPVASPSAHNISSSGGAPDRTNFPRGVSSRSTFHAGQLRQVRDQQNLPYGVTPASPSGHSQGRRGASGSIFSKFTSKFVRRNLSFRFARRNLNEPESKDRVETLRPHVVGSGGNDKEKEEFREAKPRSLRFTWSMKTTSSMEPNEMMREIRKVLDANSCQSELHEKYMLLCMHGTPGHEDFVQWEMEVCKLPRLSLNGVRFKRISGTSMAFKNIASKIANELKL

Regarding `N#Cc1cccc(-c2c[nH]c3ncnc(N4CCOCC4)c23)c1`, the % of inhibition in experiment [1] amounted to 41%.
`Cc1cc([C@@H](C)Nc2ccccc2C(=O)O)c2nc(N3CCOCC3)cc(=O)n2c1` [AZD-6482]: the results for the % of control in experiment [2] and in experiment [3] were 99% and 100%, respectively.
`CC[C@@H]1[C@H](F)C(=O)N[C@@H]1COc1nccc2cc(C(N)=O)c(OC)cc12` [ZIMLOVISERTIB]: the % of inhibition in experiment [4] is -1.3%.
With `Cc1cc(CN)cc(C)c1-c1ncn(C)c1-c1cncn1C`, the dTM in experiment [5] is -1.04 K.
In the case of `COc1cc(N(C)c2ccnc3ccc(C(F)(F)F)cc23)cc(OC)c1OC`, in experiment [6], the % binding turned out to be 97%.
